{
  "source": "patent EP4623928A1",
  "about": "“GLP-1R ANTAGONISTS FOR THE TREATMENT OF CANCER” (Fiorina, Paolo, priority 2024, dated 2025)",
  "key": {"[1]": {"tested_on": "MC38 colorectal cancer cells", "assay": "Colorectal tumour model (MC38 cells injected into the distal posterior rectum)", "type": "in vivo, C57BL/6 mice", "experimental": "Female C57BL/6 mice were anesthetized with 100 mg/kg of ketamine and 50 mg/kg of xylazine. Next, by using a 29-gauge syringe, 2×10^5 MC38 cells were injected submucosally into the distal posterior rectum in a final volume of […], as described previously (36, 37). MC38-injected mice were randomly assigned into 2 groups: (i) Exe-9-treated group (n=8), where all mice received an intraperitoneal injection of 2 µg of Exendin-9-39 (Exe-9) starting by Day1 for a total of 14 days; (ii) untreated-group (n=6), where all mice received an IP injection of PBS starting by day 1 and for a total of 14 days. Tumour growth was visually monitored daily. After animals' sacrifice, tumours were measured by a digital calliper measuring tumour length, width, and height and were weighted using a digital scale. Procedures involving mice wereb conformed to institutional guidelines in agreement with national and international law and were approved by the ethics committee by the Ministry of Health."}, "[2]": {"tested_on": "CD4^+ and CD8^+ T cells", "assay": "Cell death and proliferation of CD4+ and CD8+ T cells in splenocytes activated with anti-CD3/anti-CD28 (FACS)", "type": "cell-based, C57BL/6 mice"}, "[3]": {"tested_on": "mitogen-stimulated murine splenocytes", "assay": "IFN-γ ELISpot assay on anti-CD3/anti-CD28 stimulated splenocytes", "type": "cell-based, C57BL/6 mice", "details": "Exe-9 added to Exe-4, 0.1, 1 or 10 nM, 24 hours", "experimental": "An ELISPOT assay was used to measure the number of IFN-γ-producing cells according to the manufacturer's protocol (BD Biosciences) as previously performed by our group (39). To test the role of GLP-1R-driven immunity on the anti-CD3/28 non-autoimmune specific response, 1×10^6 splenocytes isolated from C57BL/6 mice were cultured in a microwell plate (BD Biosciences) coated with IFN-y capture antibody (Ab) in the presence of the following soluble anti-CD3 and anti-CD28 at 0,5ug/ml for 24 hours. Exe-4 and/or Exe-4+Exe-9-39 at concentrations of 0.1, 1 or 10 nM were added to the culture. After 24 hours, bound secondary Ab was visualized using HRP-streptavidin and the AEC substrate kit (BD Biosciences). Spots were counted using an Immunospot analyzer (Cellular Technology Ltd., Cleveland, OH) and expressed as the number of cytokine-producing spots per 1×10^6 cells. After 24hours, ELISpot plates were developed and acquired on an ELISpot reader, as previously described."}, "[4]": {"tested_on": "islet allografts", "assay": "Murine islet allotransplantation (BALB/c islets into STZ-treated C57BL/6 mice)", "type": "in vivo", "experimental": "Pancreatic islets from BALB/c mice were isolated by collagenase digestion and density gradient separation as previously described (33, 34). Subsequently, four to five hundred islets were inoculated under the renal capsule of each C57BL/6 recipient rendered diabetic with streptozotocin (STZ) (200 mg/kg, administered i.p. Sigma-Aldrich). Islet transplantation success was confirmed by glycaemia normalization. Rejection of islet allografts was defined as blood glucose levels >250 mg/dl for at least 2 consecutive days (35). Treatment modalities were the following: transplanted mice were intraperitoneally injected according to the following protocols: 1) Exendin-4 (Exe-4) (Amylin Pharmaceuticals, San Diego, CA -USA) 0.2pg twice/day for two weeks after transplant; 2) Exe-4 0.2pg twice/day from the day before until two weeks after transplant; 3) Exendin-4 2µg twice/day from the day before until two weeks after transplant; 4) Exendin-4 2µg twice/day + Exendin-9-39 (Exe-9) (Sigma-Aldrich) 2µg twice/day from the day before until two weeks after transplant; 5) Exendin-4 2µg twice/day from the day before until two weeks after transplant + Rapamycin 0.1mg/die for two weeks; 6) saline 0.5ml twice/day for two weeks. The follow-up of the transplanted mice was for 100 days."}, "[5]": {"tested_on": "Cardiac allografts", "assay": "Murine cardiac allotransplantation (BALB/c hearts into C57BL/6 mice)", "type": "in vivo", "experimental": "Cardiac allografts from BALB/c mice were transplanted intra-abdominally in C57BL/6 mice using microsurgical techniques as described (31). Rejection was determined as complete cessation of cardiac contractility and was confirmed by direct visualization. Transplanted mice were intraperitoneally injected according to the following protocols: 1) Exendin-4 (Exe-4) (Amylin Pharmaceuticals, San Diego, CA - USA) 0.2pg twice/day for two weeks after transplant; 2) Exe-4 0.2pg twice/day from the day before until two weeks after transplant; 3) Exe-4 2µg twice/day from the day before until two weeks after transplant; 4) Exe-4 2µg twice/day + Exendin-9-39 (Exe-9) (Sigma-Aldrich) 2µg twice/day from the day before until two weeks after transplant; 5) Exe-4 2µg twice/day from the day before until two weeks after transplant + Rapamycin 0.1mg/die for two weeks; 6) saline 0.5ml twice/day for two weeks."}, "[6]": {"details": "2 µg of Exe-9 once a day for 14 days, vs untreated"}, "[7]": {"details": "Exe-9-treated group vs untreated"}, "[8]": {"details": "co-administration Exe-4 2µg twice/day + Exe-9 2µg twice/day"}, "[9]": {"details": "splenic, Exe-9 co-administration with Exe-4"}},
  "data": [
    {"substance": "Exendin-9-39 [Exe-9]", "values": [
      {"measurement": "tumour size", "setting": "[1]; 2 µg of Exe-9 once a day for 14 days, intraperitoneal, vs untreated (PBS)", "value": "significantly reduced"},
      {"measurement": "colon length", "setting": "[1]; [6]", "value": "no differences"},
      {"measurement": "mesenteric lymph nodes volume", "setting": "[1]; [6]", "value": "significantly reduced"},
      {"measurement": "spleen weight", "setting": "[1]; [6]", "value": "no differences"},
      {"measurement": "CD3^+ and CD8^+ effector memory T cells within the spleen and mesenteric lymph nodes", "setting": "[1]; [7]", "value": "no major differences"},
      {"measurement": "tumor infiltration of CD3^+ T cells (FACS)", "setting": "[1]; [7]", "value": "increased infiltration"},
      {"measurement": "tumor infiltration of activated effector memory CD8^+ T cells (FACS)", "setting": "[1]; [7]", "value": "increased infiltration"},
      {"measurement": "intratumoral infiltration of CD3^+ T cells (pathological examination)", "setting": "[1]; Exe-9-treated group vs untreated, immunohistochemistry", "value": "significant intratumoral infiltration"},
      {"measurement": "effect of Exe-9 on Exe-4-induced cell death", "setting": "[2]; Exe-9 added to Exe-4, anti-CD3/anti-CD28 activated splenocytes", "value": "reduced the effect"},
      {"measurement": "percentages of proliferating (or cell trace positive) CD4^+ and CD8^+ T cells", "setting": "[2]; addition of antagonist Exe-9 to Exe-4, anti-CD3/CD28 Abs (Fig. 13D-E)", "value": "No differences"},
      {"measurement": "effect of Exe-9 on the Exe-4-induced reduction of IFN-y producing cells", "setting": "[3]", "value": "significantly hampered the overseen immunoregulatory effect of Exe-4"},
      {"measurement": "effect of Exe-9 on the beneficial effects of Exe-4 (islet allograft survival)", "setting": "[4]; [8]", "value": "partly abolished"},
      {"measurement": "graft infiltration (Hematoxylin and eosin staining)", "setting": "[4]; islet allograft at day 14, co-administration of Exe-9 with Exe-4", "value": "restored the graft infiltration"},
      {"measurement": "CD8^+ effector cell number", "setting": "[4]; [9]", "value": "restored CD8^+ effector cell number"},
      {"measurement": "Tregs", "setting": "[4]; [9]", "value": "did not affect Tregs"},
      {"measurement": "effect of Exe-9 on the beneficial effects of Exe-4 (heart allograft survival)", "setting": "[5]; [8]", "value": "partly abolished"},
      {"measurement": "effect of Exe-9 on the Exe-4-induced decrease of graft infiltration", "setting": "[5]; day-7 heart allograft, Exe-9 co-administration with Exe-4", "value": "abolished"},
      {"measurement": "effect of Exe-9 on the Exe-4-induced decrease of CD4^+ and CD8^+ effector T cells", "setting": "[5]; [9]", "value": "reverted"}
    ]}
  ]
}
